Results on one compound are retold here after PMC9959349, “Discovery of the 3-Amino-1,2,4-triazine-Based Library as Selective PDK1 Inhibitors with Therapeutic Potential in Highly Aggressive Pancreatic Ductal Adenocarcinoma” (International Journal of Molecular Sciences, 2023).

The test system of data set [1] is PSN-1 cells. Briefly: 3D spheroid cytotoxicity, acid phosphatase (APH) assay, PSN-1. The conditions noted are these: read-out: IC50 ±S.D. PSN-1 (3D cytotoxicity); spheroids, 72 h, APH test.
Experimental: The PDAC cancer spheroids were treated with tested compounds for 72 h, and cell viability was assessed by means of the acid phosphatase (APH) assay (Table 3).
An APH-modified assay was used for determining cell viability in 3D spheroids, as previously described [61]. Briefly, the pre-seeded spheroids were treated with fresh medium containing the compound to be studied at the appropriate concentration (range 2.5–200 μM). Triplicate cultures were established for each treatment. After 72 h, each well was treated with 100 μL of the assay buffer (0.1 M sodium acetate, 0.1% Triton-X-100, supplemented with ImmunoPure p-nitrophenyl phosphate; Sigma Chemical Co., Ltd.) and, following 3 h of incubation, 10 μL of 1 M NaOH solution was added. […] The mean absorbance for each drug dose was expressed as a percentage of the control untreated well absorbance (T/C) and plotted vs. drug concentration. […] The evaluation was based on means from at least four independent experiments.
Data set [2] deals with PSN-1 cells. In words: Mitochondrial membrane potential (Mito-ID kit). It counts as cell-based, human. The conditions noted are these: IC50 concentrations. On the procedure:
The ΔΨ was assayed using the Mito-ID® Membrane Potential Kit according to the manufacturer’s instructions (Enzo Life Sciences, Farmingdale, NY, USA) as previously described. Briefly, PSN-1 cells (8 × 10^3 per well) were seeded in 96-well plates; after 24 h, cells were washed with PBS and loaded with Mito-ID Detection Reagent for 30 min at 37 °C in the dark. Afterward, cells were incubated with tested compounds for 60 min. CCCP (Carbonyl cyanide 3-chlorophenyl-hydrazone) was used as the positive control. Fluorescence intensity was estimated using a VICTOR X3 (PerkinElmer, Waltham, MA, USA) plate reader at 490 (excitation) and 590 nm (emission).

In data set [3] the test system is PSN-1 cells. Briefly: Cellular lactate production. It counts as cell-based, human. Particulars: IC50 concentrations. As for the experimental part:
Cells were treated with DAP or representative compounds at IC50 concentrations and the changes in OCR and in the intracellular lactate formation were monitored.
PSN-1 cells (2 × 10^5) were seeded in a six-well plate in a growth medium (4 mL). After 24 h, cells were incubated for 60 min with IC50 concentrations of tested compounds. Changes in lactate production were assessed via colorimetric microplate assay (Lactate assay kit®, Merk, St. Louis, MO, USA) according to the manufacturer’s instructions. The intracellular lactate concentration was detected by measuring the absorbance of each well at 570 nm, using a Bio-Rad 680 microplate reader.

Data set [4] relates to PSN-1 cells. Briefly: TEM analysis of mitochondria. It counts as cell-based, human. Particulars: 24 h, IC50 concentrations. As for the experimental part: In addition, TEM analyses were performed on PSN-1 cancer cells after 24 h treatment with IC50 concentrations of the representative compounds 5i and 6h.
About 10^6 PSN-1 cancer cells were seeded in 24-well plates and, after 24 h incubation, were treated with IC50 concentrations of tested compounds and incubated for an additional 24 h. Cells were then washed with cold PBS, harvested, and directly fixed with 1.5% glutaraldehyde buffer with 0.2 M sodium cacodylate, pH 7.4. After washing with buffer and postfixation with 1% OsO4 in 0.2 M cacodylate buffer, specimens were dehydrated and embedded in epoxy resin (Epon Araldite). Sagittal serial sections (1 μm) were counterstained with toluidine blue; thin sections (90 nm) were given contrast by staining with uranyl acetate and lead citrate. Micrographs were taken with a Hitachi H-600 electron microscope (Hitachi, Tokyo, Japan) operating at 75 kV. All photos were typeset in Corel Draw 11.

Usually IC50 stands for the midpoint of a concentration-inhibition curve. With `Cn1cc(-c2nnc(N)nc2-c2cn(C)c3ccc(F)cc23)c2ccccc21` [5i], in the data set with PSN-1 cells [1], the half-maximal inhibitory concentration (IC50) came to 4.9 ± 0.8 µM. Moreover, in the data set on PSN-1 cells [2], the “percentage of cells with hypopolarized mitochondrial membrane potential (in words)” value is listed as “significantly increased”. In addition, the lactate production entry with PSN-1 cells [3] is recorded as “more potent than DAP”. Besides, the “mitochondrial morphology (TEM)” value in the data set on PSN-1 cells [4] was “dramatic swelling of the mitochondria”.
